From patent US7728036B2, “Methods for delivery of catecholic butanes for treatment of tumors” (priority 2003, dated 2010)
Entries after “also recorded” stand apart in the source; their conditions may differ.

Assays:
[1] = Maximal tolerable dose study in beagle dogs, clinical observations; format: in vivo; settings: over four hours
Experimental: Thus the M4N-DMSO group animals were administered with M4N-DMSO with eight intravenous injections via the non-VAP jugular vein every 30 minutes over a 4-hour period. This frequency of delivery mimicked the delivery of the test article using the infusion pump.
Animals from the CET group were observed during the entire infusion period and for at least one hour following end of infusion. The dogs in the DMSO group were observed throughout the jugular vein injection period and for at least one hour following the last (eighth) injection.

Solubility character = format: physicochemical
[2] = tested on: HT-29 colorectal carcinoma cells; experiment: Xenograft assay of human tumors in athymic nude mice, HT-29; format: in vivo
Source text: Xenograft Assay of Human Tumors.
Control mice received vehicle only.

head and neck cancer = experiment: Ex-US clinical study in head and neck cancer, daily M4N with or without G4N followed by surgical resection; format: in vivo, human
[3] = Tissue distribution after short-term oral feeding of M4N (HPLC); format: in vivo, mice
Experimental: Tissue Distribution and Toxicity Analysis Following Short-Term and Long-Term Oral Feeding. For short-term feeding experiments, 30 mg of M4N dissolved in 300 μL castor oil was orally administered to each of 6 mice. At 2 h, 4 h, and 8 h post-administration time points, 2 mice were sacrificed, the organs and blood were collected, and the M4N extracted and quantitated as described below. In long-term feeding experiments, mice were fed food balls consisting of M4N dissolved in corn oil and Basal Mix (Harlan Teklad; Madison, Wis.; Cat. # TD 02273) for 14 weeks. Food balls weighed 9 g and contained 242 mg M4N each. Two mice, one male and one female, were reserved for long-term drug retention studies; and fourteen mice, both male and female, were used for long-term drug toxicity studies. At the end of feeding, mice were sacrificed, the organs and blood were collected, and the M4N extracted and quantitated as described below.
M4N Extraction and HPLC Analysis Following Oral Feeding. Organs and blood were harvested from M4N-fed mice, then frozen overnight at −80° C. Prior to freezing, gastro-intestinal organs (stomach, small intestine, colon) were cut open longitudinally and washed thoroughly with PBS to remove any contents. The following day, organs were cut into small pieces on dry ice with a razor blade, dried in a Speed-vac, then crushed into a rough powder using a mortar and pestle. Samples were extracted overnight in 100% ethanol with shaking. Samples were centrifuged and the supernatant collected. Pellets were extracted two more times in 100% ethanol overnight with shaking. The pooled ethanol extracts were evaporated on bench top for several days, then re-extracted with ethyl acetate, and dried completely in a Speed-vac. The dried samples were then analyzed quantitatively by HPLC and M4N was identified by mass spectroscopy using pure M4N as a standard.
In samples from short-term fed mice, dialysis was performed to further purify M4N from the tissue extracts. Dried ethanol extracts were redissolved in 1.5 mL 100% EtOH and centrifuged for 5 min. The supernatant was collected and the pellet was resuspended in 0.4 mL ethanol and centrifuged again. The supernatant was pooled with the previous supernatant, then dialyzed overnight against 150 mL 100% EtOH. The dialysates were dried on bench top and in a speed-vac, then analyzed by HPLC.
HPLC Quantitation of M4N. Samples from a single mouse at each time point were sent to KP Pharmaceuticals (Bloomington, Ind.) for HPLC analysis. HPLC conditions were described as follows: 35%:0.1% TFA in H2O, 65%=“CAN.” The M4N standard was prepared by diluting 10.01 mg M4N in 100 mL of CAN, then sonicating for 5 min. (2002 ng/injection). The samples were prepared by adding 400 μL EtOH and sonicating for 2 min. or until complete dissolution was achieved. The injection volume for the samples was 100 μL.
The convenience and ease of oral administration, however, especially in the case of long-term post-surgical adjuvant treatment, would considerably facilitate drug administration to patients and would improve patient quality of life. Thus, in addition to i.p. and i.v. administration, the ability to systemically distribute M4N by oral administration was also investigated. In both short-term (<8 hours) feeding experiments and long-term (14 weeks) feeding experiments, M4N levels in various tissues and their in vivo toxicity was assessed. In short-term experiments, mice were fed 30 mg of M4N dissolved in castor oil (100 mg M4N/mL castor oil), and at 2, 4, and 8 hours post-feeding, the quantity of M4N present in various tissues was determined by HPLC.

[4] = tested on: refractory head and neck carcinomas; format: in vivo, human
Source text: Eight male subjects and one […] participated. Mean weight was 139 lbs. (range 102 to 219 lbs.).

[5] = tested on: various human tumor cells; experiment: Cell culture analyses of tumor cell growth; format: cell-based
[6] = tested on: HPV-16 transformed immortal mouse epithelial cells (C3); settings: intratumor injection; cited from earlier work
[7] = HT-29, of 11 M4N-treated tumors, 21 days i.p. treatment
[8] = patients that completed the treatment

## COc1ccc(C[C@@H](C)[C@@H](C)Cc2ccc(OC)c(OC)c2)cc1OC [M4N, meso-1,4-bis(3,4-dimethoxyphenyl)-2,3-dimethylbutane]
[1]; CET vehicle
  Dose safely administered by intravenous infusion: up to 10 mg/kg
[1]; DMSO vehicle
  Dose safely administered intravenously: up to 100 mg/kg
Solubility character
  Solubility in dimethyl sulfoxide: soluble in dimethyl sulfoxide
  Water solubility / hydrophilic or lipophilic character: hydrophobic or lipophilic
[2]; HT-29, after 21 days systemic M4N treatment
  Reduction in mean tumor volume versus control: 70%
[2]; [7]
  DOTV: number of tumors with decrease in volume from the original tumor volume: 3
  IOTV: number of tumors with increase in volume from the original tumor volume: 8
[2]; HT-29 xenograft, 2 mg M4N i.p. daily for 3 weeks
  Tumor Volume Increase (%) - 21 Days Treatment, M4N-Treatment: 787%
[2]; HT-29 xenograft, 2 mg M4N i.p. daily, 21 days
  Ratio of Mean M4N-Treated Tumor Size to Control Tumor Size: 29.4%
Head and neck cancer; for up to five days, with or without concomitant G4N 20 mg per day
  Dose delivered without drug-related toxicity: ≤ 20 mg per day
Head and neck cancer; long-term follow ups, M4N with or without G4N, then surgical resection
  Patients remaining disease free: 64%
Head and neck cancer; [8]
  Efficacy in terms of induction of necrosis: over 80%
[3]; 2 hours post-feeding, 30 mg oral
  Quantity of M4N in each tissue: < 2 ng per gram tissue
[3]; 8 hours post-feeding
  M4N levels: decreased in nearly all organs
[3]; Bladder, 2 hours after oral 30 mg M4N in castor oil
  M4N (ng)/organ dry weight (g): 2.34 ng/g
[3]; Bladder, 4 hours after oral 30 mg M4N in castor oil
  M4N (ng)/organ dry weight (g): 1.69 ng/g
[3]; Bladder, 8 hours after oral 30 mg M4N in castor oil
  M4N (ng)/organ dry weight (g): 0 ng/g
[3]; Blood, 2 hours after oral 30 mg M4N in castor oil
  M4N (ng)/organ dry weight (g): 0.5 ng/g
[3]; Blood, 4 hours after oral 30 mg M4N in castor oil
  M4N (ng)/organ dry weight (g): 2.08 ng/g
[3]; Blood, 8 hours after oral 30 mg M4N in castor oil
  M4N (ng)/organ dry weight (g): 0 ng/g
[3]; Caecum, 2 hours after oral 30 mg M4N in castor oil
  M4N (ng)/organ dry weight (g): 1.11 ng/g
[3]; Caecum, 4 hours after oral 30 mg M4N in castor oil
  M4N (ng)/organ dry weight (g): 4.38 ng/g
[3]; Caecum, 8 hours after oral 30 mg M4N in castor oil
  M4N (ng)/organ dry weight (g): 6.55 ng/g
[3]; Fat, 2 hours after oral 30 mg M4N in castor oil
  M4N (ng)/organ dry weight (g): 0.11 ng/g
[3]; Fat, 4 hours after oral 30 mg M4N in castor oil
  M4N (ng)/organ dry weight (g): 0 ng/g
[3]; Fat, 8 hours after oral 30 mg M4N in castor oil
  M4N (ng)/organ dry weight (g): 0 ng/g
[3]; Heart, 2 hours after oral 30 mg M4N in castor oil
  M4N (ng)/organ dry weight (g): 0.83 ng/g
[3]; Heart, 4 hours after oral 30 mg M4N in castor oil
  M4N (ng)/organ dry weight (g): 0.11 ng/g
[3]; Heart, 8 hours after oral 30 mg M4N in castor oil
  M4N (ng)/organ dry weight (g): 1.16 ng/g
[3]; Kidneys, 2 hours after oral 30 mg M4N in castor oil
  M4N (ng)/organ dry weight (g): 0.12 ng/g
[3]; Kidneys, 4 hours after oral 30 mg M4N in castor oil
  M4N (ng)/organ dry weight (g): 0.61 ng/g
[3]; Kidneys, 8 hours after oral 30 mg M4N in castor oil
  M4N (ng)/organ dry weight (g): 0 ng/g
[3]; Lg. Intestine, 2 hours after oral 30 mg M4N in castor oil
  M4N (ng)/organ dry weight (g): 0.24 ng/g
[3]; Lg. Intestine, 4 hours after oral 30 mg M4N in castor oil
  M4N (ng)/organ dry weight (g): 8.24 ng/g
[3]; Lg. Intestine, 8 hours after oral 30 mg M4N in castor oil
  M4N (ng)/organ dry weight (g): 2.68 ng/g
[3]; Liver, 2 hours after oral 30 mg M4N in castor oil
  M4N (ng)/organ dry weight (g): 0.05 ng/g
[3]; Liver, 4 hours after oral 30 mg M4N in castor oil
  M4N (ng)/organ dry weight (g): 0.52 ng/g
[3]; Liver, 8 hours after oral 30 mg M4N in castor oil
  M4N (ng)/organ dry weight (g): 0 ng/g
[3]; Lungs, 2 hours after oral 30 mg M4N in castor oil
  M4N (ng)/organ dry weight (g): 0.43 ng/g
[3]; Lungs, 4 hours after oral 30 mg M4N in castor oil
  M4N (ng)/organ dry weight (g): 0 ng/g
[3]; Lungs, 8 hours after oral 30 mg M4N in castor oil
  M4N (ng)/organ dry weight (g): 2.7 ng/g
[3]; Pancreas, 2 hours after oral 30 mg M4N in castor oil
  M4N (ng)/organ dry weight (g): 0.57 ng/g
[3]; Pancreas, 4 hours after oral 30 mg M4N in castor oil
  M4N (ng)/organ dry weight (g): 24.69 ng/g
[3]; Pancreas, 8 hours after oral 30 mg M4N in castor oil
  M4N (ng)/organ dry weight (g): 2.97 ng/g
[3]; Seminal Vesicles, 2 hours after oral 30 mg M4N in castor oil
  M4N (ng)/organ dry weight (g): 0.21 ng/g
[3]; Seminal Vesicles, 4 hours after oral 30 mg M4N in castor oil
  M4N (ng)/organ dry weight (g): 0.37 ng/g
[3]; Seminal Vesicles, 8 hours after oral 30 mg M4N in castor oil
  M4N (ng)/organ dry weight (g): 0 ng/g
[3]; Small Intestine, 2 hours after oral 30 mg M4N in castor oil
  M4N (ng)/organ dry weight (g): 0.09 ng/g
[3]; Small Intestine, 4 hours after oral 30 mg M4N in castor oil
  M4N (ng)/organ dry weight (g): 8.42 ng/g
[3]; Small Intestine, 8 hours after oral 30 mg M4N in castor oil
  M4N (ng)/organ dry weight (g): 5.53 ng/g
[3]; Spleen, 2 hours after oral 30 mg M4N in castor oil
  M4N (ng)/organ dry weight (g): 1.1 ng/g
[3]; Spleen, 4 hours after oral 30 mg M4N in castor oil
  M4N (ng)/organ dry weight (g): 0.16 ng/g
[3]; Spleen, 8 hours after oral 30 mg M4N in castor oil
  M4N (ng)/organ dry weight (g): 0 ng/g
[3]; Stomach, 2 hours after oral 30 mg M4N in castor oil
  M4N (ng)/organ dry weight (g): 0.23 ng/g
[3]; Stomach, 4 hours after oral 30 mg M4N in castor oil
  M4N (ng)/organ dry weight (g): 45.03 ng/g
[3]; Stomach, 8 hours after oral 30 mg M4N in castor oil
  M4N (ng)/organ dry weight (g): 33.9 ng/g
[3]; pancreas, 4 hours post-feeding
  M4N present in tissue: Significant quantities
[3]; post-feeding, single oral 30 mg
  Time of peak M4N levels: roughly 4 hours
[4]; in vivo
  Damage to healthy tissue surrounding the tumor: No damage
  Dose delivered without drug-related toxicity: up to 495 mg weekly
  Other adverse events attributed to M4N: No other adverse events
  Relation of SAEs to study medication: unlikely or not related to study medication
  Serious Adverse Events reported: 6
  Subjects with Serious Adverse Events: 4 subjects
  Subjects with severe radiating pain on injection: One
  Subjects with sporadic mild elevations in LFTs: 2 subjects
[4]; of 6 subjects receiving three doses
  Subjects with drug related tumor necrosis after injection: 5 subjects
[4]; of the six patients completing three doses
  Patients with radiologically confirmed tumor volume reduction: three
[4]; [8]
  Efficacy in terms of induction of necrosis: over 80%
[5]
  Growth of human tumor cells in culture: effectively prevent the growth
[6]
  Suppression of tumor growth / tumoricidal activity: substantial tumoricidal activity; also recorded: some evidence of suppression of tumor growth
